PMC7557804, “The Anti-Microbial Peptide (Lin-SB056-1)2-K Reduces Pro-Inflammatory Cytokine Release through Interaction with Pseudomonas aeruginosa Lipopolysaccharide” (Antibiotics, 2020)
“Also recorded” adds a separate entry of the source.

How the values were obtained:
[1] = system: A549 cells; assay: LPS-induced cytokine production by A549 cells (bead-based multiplex immunoassay); format: cell-based, Human; conditions: LPS 800 ng/mL, 4 h, 37 °C, peptide 4.8 to 19.25 μM
Experimental: (§1) Human non-small-cell lung adenocarcinoma A549 cells (ATCC CCL-185; LGC Standards, Milan, Italy) and human monocytic THP-1 cells (ATCC TIB-202; LGC Standards) were cultured in tissue culture flasks in Dulbecco’s modified essential medium (DMEM) (Euroclone, Milan, Italy) and RPMI 1640 medium (Euroclone), respectively. Both media were supplemented with 2 mM L-glutamine (Euroclone) and 10% heat-inactivated fetal bovine serum (FBS; Euroclone). Confluent monolayers were detached from the culture flask with 0.25% trypsin/1 mM EDTA solution (Euroclone), suspended in complete culture medium and seeded into flat-bottom 96-well plates at a final density of 1 × 10^4 cells/well (A549) and 2 × 10^4 cells/well (THP-1). A549 cells were cultured for 24 h at 37 °C, 5% CO2 in order to allow adhesion and formation of semi-confluent monolayers. THP-1 cells were cultured for 3 days (37 °C, 5% CO2) in the presence of 100 nM TPA (Sigma-Aldrich, St. Louis, MO, USA) to induce their differentiation into macrophage-like cells.
The anti-inflammatory potential of lin-SB056-1 and (lin-SB056-1)2-K was assessed by evaluating their ability to reduce LPS-induced production of pro-inflammatory cytokines by A549 cells and THP-1 macrophages. In order to ensure cytokine production, cell monolayers were stimulated with LPS from P. aeruginosa serotype 10 (purified by phenol extraction; Sigma-Aldrich, Milano, Italy) at a final concentration of 10 ng/mL (THP-1) and 800 ng/mL (A549). LPS concentrations used in the experiments were chosen based on preliminary assays aimed at identifying the minimum dose of the molecule able to stimulate cytokine production after 4 h of exposure. In order to assess the inhibitory activity of peptides on cytokine production, cell monolayers were incubated in complete culture medium in the presence of LPS and different concentrations of lin-SB056-1 and (lin-SB056-1)2-K (4.8 to 19.25 μM) for 4 h (37 °C, 5% CO2). Cells incubated in the presence of LPS alone were used as positive (cytokine production) control. Following incubation, cell culture supernatants were collected, filter sterilized (0.22 µm) and employed for the quantification of cytokines and the assessment of cell viability.
Different pro-inflammatory cytokines (i.e., IL-1β, IL-6, IL-8 and TNF-α) were quantified in cell culture supernatants through a bead-based multiplex immunoassay (LEGENDplex multi-analyte flow assay kit; BioLegend, San Diego, CA, USA) following manufacturer’s instructions. Briefly, 25 μL of cytokine standard or cell supernatant were incubated with 25 μL of anti-cytokine conjugated beads into V-bottom 96-well plates for 2 h. Following incubation, the plates were washed and subsequently incubated with the detection antibody (25 μL/well) for 1 h. A volume of 25 μL of streptavidin-phycoerythrin was added to each well, and the plates were incubated for another 30 min in the dark. Following consecutive washing steps, the beads were resuspended in the LEGENDplex wash buffer and the samples were analyzed by flow cytometry (BD Accuri C6 flow cytometer; BD Biosciences, Mountain View, CA, United States). Data were acquired with the BD Accuri C6 software (BD Biosciences) (300 events per analyte) and analyzed with the LEGENDplex software (BioLegend). Minimum detectable concentration (MDC+2STDEV) for the tested cytokines were as follows: IL-1β, 0.65 + 0.47 pg/mL; IL-6, 0.97 + 1.46 pg/mL; IL-8, 1.90 + 0.65 pg/mL; TNF-α, 0.88 + 0.27 pg/mL.

[2] = system: A549 cells; assay: Cytotoxicity (LDH release) towards A549 cells; format: cell-based, Human; conditions: LPS-stimulated A549, 4 h
Experimental: as §1
(§2) The cytotoxicity of lin-SB056-1 and (lin-SB056-1)2-K towards A549 and THP-1 cells was evaluated to exclude a possible correlation between reduction in cytokine levels and decrease in cell numbers. To this end, culture supernatants of cells stimulated with LPS in the presence of the peptides were employed to quantify the amount of cytoplasmic LDH released by dead cells. Cells incubated in culture medium alone or in the presence of LPS served as an indication of spontaneous cell death (cell viability controls), while cells treated with a commercial lysis buffer (Pierce LDH cytotoxicity assay kit, Thermo Fisher Scientific) were used as cell death control (100% cell lysis). The enzymatic activity of LDH in cell supernatants was measured using the Pierce LDH cytotoxicity assay kit (Thermo Fisher Scientific) following manufacturer’s instructions. The cytotoxic effect was determined as follows: cytotoxicity (%) = [(LDH activity of A/LDH activity of B) × 100], where A represents peptide-treated or untreated cells (both in the presence and absence of LPS), and B corresponds to the cell lysis control.

[3] = system: THP-1 macrophages; assay: Cytotoxicity (LDH release) towards THP-1 macrophages; format: cell-based, Human; conditions: LPS-stimulated THP-1 macrophages, 4 h
Experimental: as §1, §2

[4] = BODIPY TR cadaverine (BC) fluorescent displacement assay, LPS binding; design: species or system P. aeruginosa; conditions: P. aeruginosa serotype 10 LPS 10 µg/mL, BC 10 µM; 50 mM Tris-HCl, pH 7.4; 25 °C; excitation 580 nm, emission 620 nm; mean of three independent experiments, SD not exceeding 5%
Experimental: Measurement of the ability of lin-SB056-1 and its dendrimeric derivative to bind P. aeruginosa serotype 10 LPS (Sigma-Aldrich) in vitro was performed by a fluorescent displacement assay using the BODIPY TR cadaverine (BC) probe (5-(((4-(4,4-difluoro-5-(2-thienyl)-4-bora-3a,4a-diaza-s-indacene-3-yl)phenoxy)acetyl)amino)pentylamine, hydrochloride); Thermo Fisher Scientific), as described elsewhere. BC binds to LPS by recognizing the lipid A portion and the probe fluorescence is quenched. When a peptide able to interact with LPS is added, BC is displaced from the complex and its fluorescence increases. LPS binding assays were carried out in 50 mM Tris-HCl buffer, pH 7.4. Aliquots of the peptides at a final concentration of 0.1 μM were successively added to a cuvette containing the LPS/BC complex (10 µg/mL P. aeruginosa LPS and 10 µM BC). Fluorescence measurements were performed with a Perkin-Elmer LS 55B spectrofluorometer (Perkin-Elmer, Waltham, MA, USA) using a thermostated (25 °C) cuvette apparatus (excitation: 580 nm; emission: 620 nm).

[5] = LAL assay, LPS neutralization; format: biochemical, Escherichia coli; conditions: 2.4 to 19.25 μM peptide; E. coli 011:B4 LPS 2 EU/mL; 30 min, 37 °C
Experimental: The ability of lin-SB056-1 and (lin-SB056-1)2-K to neutralize the activity of LPS was analyzed using a standardized LAL assay (Pierce LAL chromogenic endotoxin quantitation kit; Thermo Fisher Scientific). Peptides at different concentrations (2.4 to 19.25 μM) were pre-incubated with E. coli 011:B4 LPS (2 Endotoxin Units (EU)/mL; EU = unit of measurement for endotoxin activity) for 30 min (37 °C, shaking) in order to promote the interaction between the two molecules. LPS alone was used as positive control. Following incubation, peptide-treated and untreated samples were mixed with the LAL reagent (1:1 ratio) and incubated for 10 min at 37 °C. Subsequently, 100 μL of the chromogenic substrate were added and incubated with the samples for 6 min. The reaction was terminated by adding 100 μL of acetic acid (25% v/v), and absorbance was measured at 405 nm ([…]) using a microplate reader (Multiscan FC, Life Technologies Italia, Monza, Italy). The amount of peptide-sequestered LPS was determined as follows: LPS neutralization (%) = [100 − (ODpeptide/ODpositive control × 100)].

[6] = system: P. aeruginosa; conditions: previous studies; cited from earlier work
Source text: (§3) The global issue of anti-microbial resistance coupled with the lack of new treatments for bacterial infections has stimulated interest in the use of AMPs for therapeutic purposes. Due to their unique mechanism(s) of action and wide spectrum of biological activities, AMPs are emerging as a promising alternative to conventional anti-microbial agents for the management of antibiotic-resistant and biofilm-associated infections. Although mainly intended for topical use due to potential toxicity and reduced stability under physiological conditions, many different peptides with anti-micro ...

[7] = system: mammalian cells; conditions: cited from earlier work
Source text: as §3

[8] = in vitro; cited from earlier work
Source text: While the anti-microbial activities of AMPs are becoming increasingly understood, the mechanisms underlying their anti-inflammatory effect still need to be fully elucidated. Nevertheless, the anti-inflammatory mode of action of many peptides has been attributed to their ability to efficiently bind LPS and/or block LPS recognition by effector cells. […] Analogous LPS-ne ... || It is generally thought that the dendrimeric architecture leads to improved biological activity due to a higher local concentration of the active sequence. Possibly, thanks to its conformational plasticity, the dendrimeric organization might maximize target binding (e.g., LPS) through electrostatic interactions, leading to greater biological effects. Nevertheless, we cannot exclude a role of stability on the ability of dendrimeric peptides to establish solid interactions with LPS under specific experimental conditions. For instance, the stronger LPS-binding affinity of (lin-SB056-1 ...

[9] = system: sepsis in animal models; conditions: by sequestering soluble LPS; cited from earlier work
Source text: While the anti-microbial activities of AMPs are becoming increasingly understood, the mechanisms underlying their anti-inflammatory effect still need to be fully elucidated. Nevertheless, the anti-inflammatory mode of action of many peptides has been attributed to their ability to efficiently bind LPS and/or block LPS recognition by effector cells. […] Analogous LPS-ne ...

[10] = up to 19.25 μM (highest tested), 37 °C, 5% CO2, relative to cell lysis control, at least three independent experiments

| Substance | effect on IL-6 release [1] | effect on IL-8 release ([1]; lin-SB056-1 decrease at 19.25 μM (highest tested)) | cell death (LDH release), with LPS [2, 10] | toxicity ([2]; up to 19.25 μM, LDH release) | cell death (LDH release), with LPS [3, 10] | toxicity ([3]; up to 19.25 μM, LDH release) | ED50 (Effective Displacement; peptide concentration displacing half of the BC) [4] [nM] | LPS neutralization / LAL activity [5] | anti-microbial / anti-biofilm activity [6] | cytotoxicity [7] | LPS-induced pro-inflammatory responses [8] | protection from sepsis [9] |
| --- | --- | --- | --- | --- | --- | --- | --- | --- | --- | --- | --- | --- |
| KWKIRVRLSA-NH2 [lin-SB056-1, semi-synthetic peptide lin-SB056-1] | only a decrease in IL-8 levels was recorded | decrease in IL-8 levels | less than 5% | no detectable toxicity | less than 5% | no detectable toxicity | ~1750 | differently from lin-SB056-1 | effective against biofilms; also recorded: promising anti-microbial activity | low cytotoxicity | – | – |
| LL-37: well-known human cathelicidin LL-37 (LLGDFFRKSKEKIGKEFKRIVQRIKDFLRNLVPRTES; Antibacterial peptide LL-37; UniProt P49913 134-170, looked up) | – | – | – | – | – | – | – | – | – | – | suppress LPS-induced pro-inflammatory responses | protect from sepsis |
